# Data reported in PubChem BioAssay AID743088 (The Scripps Research Institute Molecular Screening Center, 2013).
# Calls of active or inactive are those of the source.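 The calls were made as follows: active = binding inhibited by at least 50%, or stimulated by at least 50%, shown as inhibition of -50% or lower; inactive = the rest.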
# How the values were obtained:
# Assay in all cases: off-target binding across receptor panel, profiling panel, selectivity assay for AVPR1a antagonist project, biochemical, Panlabs HitProfilingScreen (AID 743088)
# [1] = target: Muscarinic acetylcholine receptor M3 (Homo sapiens) (UniProt P20309); conditions: Panlabs radioligand binding panel, 30 targets, at 10 µM, active compounds read high
# Muscarinic acetylcholine receptor M3 (Homo sapiens), sequence (P20309 whole entry, looked up): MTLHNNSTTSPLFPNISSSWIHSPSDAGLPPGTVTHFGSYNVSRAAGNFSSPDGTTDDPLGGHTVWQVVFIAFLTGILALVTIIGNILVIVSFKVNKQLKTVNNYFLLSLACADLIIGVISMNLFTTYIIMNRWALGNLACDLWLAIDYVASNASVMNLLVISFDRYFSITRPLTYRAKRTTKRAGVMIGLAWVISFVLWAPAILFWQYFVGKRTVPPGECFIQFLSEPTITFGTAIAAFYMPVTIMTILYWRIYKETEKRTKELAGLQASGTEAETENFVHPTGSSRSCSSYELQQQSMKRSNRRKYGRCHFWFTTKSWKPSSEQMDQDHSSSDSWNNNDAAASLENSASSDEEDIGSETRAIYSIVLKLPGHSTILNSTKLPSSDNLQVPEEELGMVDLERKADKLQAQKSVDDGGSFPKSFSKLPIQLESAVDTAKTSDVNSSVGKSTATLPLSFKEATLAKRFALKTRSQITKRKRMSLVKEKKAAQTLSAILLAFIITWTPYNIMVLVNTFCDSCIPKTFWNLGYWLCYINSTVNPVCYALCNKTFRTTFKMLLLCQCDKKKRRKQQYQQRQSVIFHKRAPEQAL
# GABAA Central = conditions: Panlabs radioligand binding panel, 30 targets, at 10 µM, active compounds read high
# Cannabinoid CB1 = conditions: Panlabs radioligand binding panel, 30 targets, at 10 µM, active compounds read high
# Prostanoid EP4 = conditions: Panlabs radioligand binding panel, 30 targets, at 10 µM, active compounds read high
# Adenosine A1 = conditions: Panlabs radioligand binding panel, 30 targets, at 10 µM, active compounds read high
# Adrenergic alpha1A = conditions: Panlabs radioligand binding panel, 30 targets, at 10 µM, active compounds read high
# Calcium Channel L-Type = conditions: Panlabs radioligand binding panel, 30 targets, Dihydropyridine site, at 10 µM, active compounds read high
# Glutamate NMDA = conditions: Panlabs radioligand binding panel, 30 targets, Phencyclidine site, at 10 µM, active compounds read high
# [2] = target: Muscarinic acetylcholine receptor M2 (Homo sapiens) (UniProt P08172); conditions: Panlabs radioligand binding panel, 30 targets, at 10 µM, active compounds read high
# Muscarinic acetylcholine receptor M2 (Homo sapiens), sequence (P08172 whole entry, looked up): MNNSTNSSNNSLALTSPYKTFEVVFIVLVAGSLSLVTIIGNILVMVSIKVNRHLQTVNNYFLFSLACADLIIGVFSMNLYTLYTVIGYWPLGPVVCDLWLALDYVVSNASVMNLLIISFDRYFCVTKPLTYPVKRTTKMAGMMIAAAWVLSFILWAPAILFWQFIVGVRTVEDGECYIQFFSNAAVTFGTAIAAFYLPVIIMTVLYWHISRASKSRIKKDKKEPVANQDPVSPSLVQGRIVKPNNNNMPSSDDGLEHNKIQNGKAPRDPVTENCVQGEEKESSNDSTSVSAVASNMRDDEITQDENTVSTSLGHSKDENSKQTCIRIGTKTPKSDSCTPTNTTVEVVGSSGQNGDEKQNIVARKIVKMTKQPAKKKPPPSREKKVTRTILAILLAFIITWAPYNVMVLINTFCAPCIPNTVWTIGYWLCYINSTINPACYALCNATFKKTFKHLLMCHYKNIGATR
# [3] = target: Beta-2 adrenergic receptor (Homo sapiens) (UniProt P07550); conditions: Panlabs radioligand binding panel, 30 targets; Adrenergic beta2; at 10 µM; active compounds read high
# Beta-2 adrenergic receptor (Homo sapiens), sequence (P07550 whole entry, looked up): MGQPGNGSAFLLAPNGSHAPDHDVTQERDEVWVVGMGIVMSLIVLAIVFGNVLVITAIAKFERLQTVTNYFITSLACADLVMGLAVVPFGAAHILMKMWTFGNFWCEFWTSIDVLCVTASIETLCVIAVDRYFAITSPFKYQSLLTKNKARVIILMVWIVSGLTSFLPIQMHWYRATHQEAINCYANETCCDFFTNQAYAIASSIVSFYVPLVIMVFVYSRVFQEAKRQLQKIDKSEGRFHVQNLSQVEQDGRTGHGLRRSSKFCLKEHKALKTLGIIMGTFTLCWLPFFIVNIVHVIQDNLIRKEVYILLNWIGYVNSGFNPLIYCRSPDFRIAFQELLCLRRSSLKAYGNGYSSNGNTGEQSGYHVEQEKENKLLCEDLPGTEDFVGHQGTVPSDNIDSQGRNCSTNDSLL
# [4] = tested on: Alpha-2A adrenergic receptor (Homo sapiens) + Histamine H1 receptor (Homo sapiens) + Mu-type opioid receptor (Homo sapiens); conditions: Panlabs radioligand binding panel, 30 targets; at 10 µM; active compounds read high
# Adrenergic alpha1B = conditions: Panlabs radioligand binding panel, 30 targets, at 10 µM, active compounds read high
# Opiate mu (OP3, MOP) = conditions: Panlabs radioligand binding panel, 30 targets, at 10 µM, active compounds read high
# [5] = target: Alpha-2A adrenergic receptor (Homo sapiens) (UniProt P08913); conditions: Panlabs radioligand binding panel, 30 targets; Adrenergic alpha2A; at 10 µM; active compounds read high
# Alpha-2A adrenergic receptor (Homo sapiens), sequence (P08913 whole entry, looked up): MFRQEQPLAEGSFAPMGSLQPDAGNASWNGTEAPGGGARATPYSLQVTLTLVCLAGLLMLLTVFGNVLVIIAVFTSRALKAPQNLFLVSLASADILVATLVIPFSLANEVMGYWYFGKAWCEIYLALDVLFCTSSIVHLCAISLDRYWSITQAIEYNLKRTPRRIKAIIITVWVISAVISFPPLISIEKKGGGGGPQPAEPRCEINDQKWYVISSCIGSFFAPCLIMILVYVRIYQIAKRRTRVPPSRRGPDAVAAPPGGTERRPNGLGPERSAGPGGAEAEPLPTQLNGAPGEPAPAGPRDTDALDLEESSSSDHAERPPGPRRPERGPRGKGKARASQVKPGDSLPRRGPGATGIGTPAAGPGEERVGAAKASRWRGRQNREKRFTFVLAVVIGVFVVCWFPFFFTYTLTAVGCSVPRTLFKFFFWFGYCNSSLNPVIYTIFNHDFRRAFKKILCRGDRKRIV
# [6] = target: D(1A) dopamine receptor (Homo sapiens) (UniProt P21728); conditions: Panlabs radioligand binding panel, 30 targets; Dopamine D1; at 10 µM; active compounds read high
# D(1A) dopamine receptor (Homo sapiens), sequence (P21728 whole entry, looked up): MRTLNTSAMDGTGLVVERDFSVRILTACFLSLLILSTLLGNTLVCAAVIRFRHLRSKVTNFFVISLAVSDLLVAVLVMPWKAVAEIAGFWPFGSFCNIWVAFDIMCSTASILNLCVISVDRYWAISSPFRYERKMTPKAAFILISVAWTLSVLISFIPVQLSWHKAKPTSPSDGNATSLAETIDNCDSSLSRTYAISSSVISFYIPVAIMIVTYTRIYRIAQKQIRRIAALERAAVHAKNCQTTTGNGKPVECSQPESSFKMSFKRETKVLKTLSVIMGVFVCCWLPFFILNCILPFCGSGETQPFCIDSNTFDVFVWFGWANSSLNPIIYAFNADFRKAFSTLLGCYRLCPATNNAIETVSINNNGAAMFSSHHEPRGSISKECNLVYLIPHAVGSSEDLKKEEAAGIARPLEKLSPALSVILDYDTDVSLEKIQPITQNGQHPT
# Dopamine D2 = conditions: Panlabs radioligand binding panel, 30 targets, at 10 µM, active compounds read high
# [7] = tested on: Transporter Norepinephrine (NET); conditions: Panlabs radioligand binding panel, 30 targets, at 10 µM, active compounds read high
# [8] = target: 5-hydroxytryptamine receptor 2B (Homo sapiens) (UniProt P41595); conditions: Panlabs radioligand binding panel, 30 targets; Serotonin (5-Hydroxytryptamine) 5-HT2B; at 10 µM; active compounds read high
# 5-hydroxytryptamine receptor 2B (Homo sapiens), sequence (P41595 whole entry, looked up): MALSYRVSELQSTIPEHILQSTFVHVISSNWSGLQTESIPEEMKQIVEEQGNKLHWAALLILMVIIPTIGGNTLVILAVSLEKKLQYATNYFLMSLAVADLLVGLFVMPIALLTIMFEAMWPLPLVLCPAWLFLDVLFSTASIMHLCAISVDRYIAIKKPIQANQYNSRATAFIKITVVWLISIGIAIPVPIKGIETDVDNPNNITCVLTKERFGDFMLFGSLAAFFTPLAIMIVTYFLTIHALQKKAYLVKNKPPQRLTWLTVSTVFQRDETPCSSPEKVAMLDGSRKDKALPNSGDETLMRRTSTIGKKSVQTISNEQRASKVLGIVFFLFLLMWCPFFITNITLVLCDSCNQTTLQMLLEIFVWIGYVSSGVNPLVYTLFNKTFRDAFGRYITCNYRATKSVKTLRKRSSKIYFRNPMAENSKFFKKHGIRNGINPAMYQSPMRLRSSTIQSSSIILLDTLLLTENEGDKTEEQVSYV
# Sodium Channel Site 2 = conditions: Panlabs radioligand binding panel, 30 targets, at 10 µM, active compounds read high
# Adrenergic beta1 = conditions: Panlabs radioligand binding panel, 30 targets, at 10 µM, active compounds read high
# Adenosine A2A = conditions: Panlabs radioligand binding panel, 30 targets, at 10 µM, active compounds read high
# [9] = target: Voltage-gated inwardly rectifying potassium channel KCNH2 (Homo sapiens) (UniProt Q12809); conditions: Panlabs radioligand binding panel, 30 targets; Potassium Channel hERG; at 10 µM; active compounds read high
# Voltage-gated inwardly rectifying potassium channel KCNH2 (Homo sapiens), sequence (Q12809 whole entry, looked up): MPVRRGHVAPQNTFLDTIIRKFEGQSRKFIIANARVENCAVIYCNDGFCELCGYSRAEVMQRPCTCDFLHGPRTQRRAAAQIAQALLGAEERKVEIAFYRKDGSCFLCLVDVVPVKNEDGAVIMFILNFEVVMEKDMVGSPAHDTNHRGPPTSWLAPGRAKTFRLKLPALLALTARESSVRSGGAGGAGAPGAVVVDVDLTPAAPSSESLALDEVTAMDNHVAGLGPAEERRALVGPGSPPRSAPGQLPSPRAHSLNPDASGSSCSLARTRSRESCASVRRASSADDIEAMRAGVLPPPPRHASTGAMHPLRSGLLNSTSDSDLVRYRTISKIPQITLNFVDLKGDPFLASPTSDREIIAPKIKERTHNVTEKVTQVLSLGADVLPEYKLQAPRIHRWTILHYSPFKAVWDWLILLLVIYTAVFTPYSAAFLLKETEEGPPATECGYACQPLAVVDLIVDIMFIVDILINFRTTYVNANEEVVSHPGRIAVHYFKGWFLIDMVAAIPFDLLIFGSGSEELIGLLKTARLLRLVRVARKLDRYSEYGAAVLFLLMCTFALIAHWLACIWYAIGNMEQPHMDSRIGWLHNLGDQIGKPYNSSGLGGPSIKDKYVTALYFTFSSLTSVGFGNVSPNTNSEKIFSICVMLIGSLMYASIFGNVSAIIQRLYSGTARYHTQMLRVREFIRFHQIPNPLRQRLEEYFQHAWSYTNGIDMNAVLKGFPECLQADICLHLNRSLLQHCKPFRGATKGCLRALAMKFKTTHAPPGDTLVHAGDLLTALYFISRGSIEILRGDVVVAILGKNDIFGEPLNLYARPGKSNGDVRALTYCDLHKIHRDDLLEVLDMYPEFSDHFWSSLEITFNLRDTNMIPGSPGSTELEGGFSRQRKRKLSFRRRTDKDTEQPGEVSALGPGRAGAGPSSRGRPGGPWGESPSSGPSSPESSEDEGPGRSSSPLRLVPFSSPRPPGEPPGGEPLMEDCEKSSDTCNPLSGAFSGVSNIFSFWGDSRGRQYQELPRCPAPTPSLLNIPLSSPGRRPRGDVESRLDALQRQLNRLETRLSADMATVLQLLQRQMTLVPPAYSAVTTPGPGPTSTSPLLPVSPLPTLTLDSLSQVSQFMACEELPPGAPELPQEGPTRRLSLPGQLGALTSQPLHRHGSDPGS
# Sigma 1 = conditions: Panlabs radioligand binding panel, 30 targets, at 10 µM, active compounds read high
# Nicotinic Acetylcholine = conditions: Panlabs radioligand binding panel, 30 targets, at 10 µM, active compounds read high
# Histamine H1 = conditions: Panlabs radioligand binding panel, 30 targets, at 10 µM, active compounds read high
smiles,measurement,setting,value
O=C(C1CCN(c2ccc(Cl)cn2)CC1)N(CC1CC1)c1ccc(Cl)cc1,inhibition of binding,[1],-2% (inactive)
same,inhibition of binding,GABAA Central; Flunitrazepam site,-6% (inactive)
same,inhibition of binding,GABAA Central; Muscimol site,7% (inactive)
same,inhibition of binding,Cannabinoid CB1,48% (inactive)
same,inhibition of binding,Prostanoid EP4,31% (inactive)
same,inhibition of binding,Adenosine A1,-4% (inactive)
same,inhibition of binding,Adrenergic alpha1A,23% (inactive)
same,inhibition of binding,Calcium Channel L-Type,44% (inactive)
same,inhibition of binding,Glutamate NMDA,5% (inactive)
same,inhibition of binding,[2],-5% (inactive)
same,inhibition of binding,[3],5% (inactive)
same,inhibition of binding,[4],6% (inactive)
same,inhibition of binding,Adrenergic alpha1B,-15% (inactive)
same,inhibition of binding,"Opiate mu (OP3, MOP)",23% (inactive)
same,inhibition of binding,[5],8% (inactive)
same,inhibition of binding,[6],-6% (inactive)
same,inhibition of binding,Dopamine D2,1% (inactive)
same,inhibition of binding,[7],47% (inactive)
same,inhibition of binding,[8],36% (inactive)
same,inhibition of binding,Sodium Channel Site 2,35% (inactive)
same,inhibition of binding,Adrenergic beta1,12% (inactive)
same,inhibition of binding,Adenosine A2A,7% (inactive)
same,inhibition of binding,[9],22% (inactive)
same,inhibition of binding,Sigma 1,61%
same,inhibition of binding,Nicotinic Acetylcholine,-15% (inactive)
same,inhibition of binding,Histamine H1,12% (inactive)
